The values below come from PubChem BioAssay (NCI).

Test systems include CCRF-CEM leukemia; NCI-H23 lung; A549 NSCLC; SK-MEL-2 melanoma; LOX IMVI melanoma; HS 578T breast; HT29 colon; ACHN renal; SNB-75 CNS; A498 renal.
Experiment in all cases: NCI-60 cell line screen, 48 h

Values joined by “and” are separate entries in the source; they are usually repeats but may differ in a detail not shown here. Equal entries are not always repeated.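 How tested: cells in 96-well plates exposed to compound for 48 hours at five concentrations. At the GI50, growth is halved. Definition used: TGI = concentration required for complete inhibition of growth.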

Regarding `CNC(=S)N(C1CCCCC1)C1CCCCC1`, the TGI in the experiment on CCRF-CEM leukemia is more than 100 µM; with NCI-H23 lung it was more than 100 µM; in the experiment with A549 NSCLC it was more than 100 µM; in the experiment on SK-MEL-2 melanoma, more than 100 µM; with LOX IMVI melanoma, more than 100 µM; with HS 578T breast, 98.8 µM. The TGI with HT29 colon, in the experiment with ACHN renal and in the experiment with SNB-75 CNS was more than 100 µM each time.

For the compound `COc1c(Cl)[c]([Hg][O]C(C)=O)c(NCC(C)=O)c(OC)[c]1[Hg][O]C(C)=O`, the GI50 in the experiment with CCRF-CEM leukemia was 10.3 µM; with NCI-H23 lung, 11.2 µM; in the experiment with A549 NSCLC it was 81.6 µM; in the experiment on SK-MEL-2 melanoma, 11.9 µM; in the experiment on LOX IMVI melanoma, 33.4 µM; in the experiment with HT29 colon, 19.5 µM. Further, the results for the GI50 in the experiment on A498 renal, in the experiment with ACHN renal and in the experiment on SNB-75 CNS were 26.7 µM, 17.8 µM and 13.9 µM, respectively. For the same compound, the TGI with CCRF-CEM leukemia is 34.4 µM; with NCI-H23 lung it was 28.8 µM; with A549 NSCLC, more than 100 µM; with SK-MEL-2 melanoma, 24.9 µM; in the experiment with LOX IMVI melanoma, more than 100 µM; in the experiment with HT29 colon it was 48.2 µM. Besides, the TGI in the experiment with A498 renal worked out at 71 µM; in the experiment on ACHN renal, 34.5 µM; with SNB-75 CNS it was 32.5 µM.

On to `N.N.NCCCCCN.O=C([O-])CC(=O)[O-].O=C([O-])CC(=O)[O-].[Pt+4].[Pt+4]`, for which the GI50 is 34 µM in the experiment with CCRF-CEM leukemia; 98.3 µM with NCI-H23 lung; more than 100 µM with A549 NSCLC; more than 100 µM in the experiment with SK-MEL-2 melanoma; more than 100 µM in the experiment on LOX IMVI melanoma; more than 100 µM in the experiment with HT29 colon. Also, the figures for the GI50 in the experiment on A498 renal, with ACHN renal and in the experiment with SNB-75 CNS were more than 100 µM, 66.6 µM and more than 100 µM, respectively. The TGI in the experiment on CCRF-CEM leukemia, with NCI-H23 lung, in the experiment on A549 NSCLC, in the experiment on SK-MEL-2 melanoma, in the experiment on LOX IMVI melanoma and in the experiment with HT29 colon was more than 100 µM each time. Further, the TGI in the experiment with A498 renal, in the experiment on ACHN renal and in the experiment on SNB-75 CNS was more than 100 µM throughout.

On to `CCOC(=O)NC(=O)c1cn(C2OC(COC(=O)CCCCCCCCC(=O)OCC3OC(n4cc(C(=O)NC(=O)OCC)c(=O)[nH]c4=O)C4OC(C)(C)OC34)C3OC(C)(C)OC32)c(=O)[nH]c1=O` (configuration not stated), for which the TGI in the experiment on CCRF-CEM leukemia, in the experiment on NCI-H23 lung, in the experiment with A549 NSCLC, in the experiment with SK-MEL-2 melanoma, in the experiment with LOX IMVI melanoma and in the experiment with HT29 colon was more than 100 µM each time. Further, the TGI with A498 renal, in the experiment with ACHN renal and in the experiment on SNB-75 CNS was more than 100 µM each time.

As for `CCN(CC)/[N+]([O-])=N/OCC(C)O` (configuration not stated), the TGI in the experiment with CCRF-CEM leukemia, in the experiment with NCI-H23 lung, with A549 NSCLC, with SK-MEL-2 melanoma, in the experiment on LOX IMVI melanoma and with HT29 colon was more than 100 µM in each case. Besides, the TGI in the experiment with A498 renal, in the experiment with ACHN renal and in the experiment with SNB-75 CNS was more than 100 µM throughout.

`CC1(C)OC2COC(c3[nH]nc4c(=O)[nH]c(=O)[nH]c34)C2O1` (configuration not stated): the TGI with NCI-H23 lung, with A549 NSCLC, with SK-MEL-2 melanoma, in the experiment on LOX IMVI melanoma, in the experiment with HS 578T breast and in the experiment on HT29 colon was more than 100 µM in each case. Besides, the TGI in the experiment with A498 renal and in the experiment with ACHN renal was more than 100 µM in each case.

In the case of `O=C(O)CNC(=O)C1NC(C(F)(F)F)(C(F)(F)F)OC1(C(F)(F)F)C(F)(F)F` (configuration not stated), the TGI in the experiment on NCI-H23 lung, with A549 NSCLC, with SK-MEL-2 melanoma, with LOX IMVI melanoma, in the experiment on HS 578T breast and in the experiment with HT29 colon was more than 100 µM in each case. Moreover, the TGI with A498 renal, with ACHN renal and in the experiment with SNB-75 CNS was more than 100 µM in each case.

On to `Cc1nc(-n2nc(-c3ccccc3)cc2-c2ccccc2)sc1C(=O)/C=C/c1ccc(Cl)cc1`, for which the TGI came out at 78.1 µM in the experiment with CCRF-CEM leukemia; 34 µM with NCI-H23 lung; 64.9 µM in the experiment on A549 NSCLC; 35.7 µM in the experiment with SK-MEL-2 melanoma; 27.9 µM in the experiment with LOX IMVI melanoma; 29.6 µM with HT29 colon. Moreover, the TGI in the experiment on A498 renal was 83.3 µM; in the experiment with ACHN renal, more than 100 µM; with SNB-75 CNS, more than 100 µM.

As to `CCC(=O)Nc1ncnc2ncn(C(=O)CC)c12`, the TGI with NCI-H23 lung, with A549 NSCLC, in the experiment on SK-MEL-2 melanoma, with LOX IMVI melanoma, in the experiment on HS 578T breast and with HT29 colon was more than 100 µM each time. Further, the TGI in the experiment on A498 renal, in the experiment with ACHN renal and with SNB-75 CNS was more than 100 µM throughout.

Take `CCCCCCC(O)C(O)CCC(O)C1CCC(CCCCC(O)CC2=CC(C)OC2=O)O1` (configuration not stated): the GI50 in the experiment on NCI-H23 lung was 2.86 µM; in the experiment with A549 NSCLC it was 10.6 µM; in the experiment on SK-MEL-2 melanoma, 17.4 µM; with LOX IMVI melanoma it was 4.48 µM; in the experiment on ACHN renal, 12.4 µM; in the experiment with SNB-75 CNS it was 24.1 µM. Besides, the TGI was 40.1 µM with NCI-H23 lung; 35.3 µM in the experiment with A549 NSCLC; 36 µM in the experiment with SK-MEL-2 melanoma; 5.02 µM and 27.7 µM in the experiment with LOX IMVI melanoma; 6.98 µM with HS 578T breast; 6.82 µM in the experiment with HT29 colon. For the same compound, the TGI in the experiment on A498 renal stood at 47.6 µM; with SNB-75 CNS, 60.8 µM.

`C/C=C(\C)C(=O)N1c2ccccc2CC1c1c(C)[nH]c2ccccc12` (configuration not stated): the TGI is more than 100 µM in the experiment on CCRF-CEM leukemia; more than 100 µM in the experiment on NCI-H23 lung; more than 100 µM in the experiment on A549 NSCLC; 69.6 µM with SK-MEL-2 melanoma; more than 100 µM with LOX IMVI melanoma; more than 100 µM in the experiment with HT29 colon. In addition, the TGI with A498 renal, with ACHN renal and in the experiment on SNB-75 CNS was more than 100 µM each time.

As to `COc1cccc(NC(=O)c2ccc(NC3=C(Cl)C(=O)N(Cc4ccccc4)C3=O)cc2)c1`, the GI50 is 1.67 µM in the experiment with CCRF-CEM leukemia; 15.3 µM with NCI-H23 lung; 13.6 µM with A549 NSCLC; 2.71 µM in the experiment on LOX IMVI melanoma; 11.1 µM in the experiment on HS 578T breast; 5.74 µM in the experiment on HT29 colon. The figures for the GI50 in the experiment on A498 renal and in the experiment with ACHN renal were 22.2 µM and 6.22 µM, respectively. Moreover, the TGI came to 4.35 µM with CCRF-CEM leukemia; 28.6 µM in the experiment with NCI-H23 lung; 38 µM in the experiment with A549 NSCLC; 9.11 µM in the experiment with LOX IMVI melanoma; 30.9 µM in the experiment with HS 578T breast; 17.4 µM in the experiment on HT29 colon. The TGI turned out to be 48.9 µM in the experiment on A498 renal and 19 µM in the experiment on ACHN renal.
